The results in this text go back to paper PMC11249646, “Small-Molecule Disruptors of the Interaction between Calcium- and Integrin-Binding Protein 1 and Integrin αIIbβ3 as Novel Antiplatelet Agents” (ACS Pharmacology & Translational Science, 2024).

Read-outs that look alike come from different tables or passages of the source.

The target in the experiment is T1, CIB1 and αIIb interaction (CIB1-GST : F-αIIb peptide) (Homo sapiens, UniProt Q99828).
T1 construct: made in house; host or cells: BL-21 plus RIL cells (E. coli)
T1 sequence (Q99828 1-191): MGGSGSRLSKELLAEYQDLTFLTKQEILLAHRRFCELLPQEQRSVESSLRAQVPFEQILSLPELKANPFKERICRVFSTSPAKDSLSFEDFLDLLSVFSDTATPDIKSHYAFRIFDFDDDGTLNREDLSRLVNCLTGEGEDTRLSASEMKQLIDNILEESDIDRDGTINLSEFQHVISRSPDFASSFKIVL
The experiment in a line: FP assay, 1536-well qHTS format (primary and confirmatory screen). The class given is binding. The note with it: for Efficacy (%): negative = inhibition; for Curve Class: negative sign = inhibitory curve; for IC50: read-out: IC50. On the technique in general: In qHTS, concentration-response curves come from the screen itself.

The mark [1] stands for this setting: qHTS primary screen of LOPAC/NPACT libraries.
[2] abbreviates: qHTS primary screen hits, Table S2, NPACT library.
Where [3] appears, read: qHTS primary screen hits, Table S2.

As for `C=C1C2(C)CC3C(C)(O)C4=CC(=O)OC(C)(C)C4=CCC3(C)C13C(=O)OC(C)C3(O)C2=O` (stereo not drawn) [NCGC00380442-01], under setting [1], the “Efficacy (%)” value is reported as -28%, the “Curve Class” value is reported as -2.4 and the IC50 was 35.5 µM.

As to `C=C(C)C(=O)OC1CC2(C)OC(=CC2=O)C(=C)CC2OC(=O)C(COC)C12` (stereo not drawn) [NCGC00380534-01], the “Curve Class” value under setting [2] is recorded as -1.4. Besides, under setting [3], the “Efficacy (%)” value is -17% and the concentration for half-maximal inhibition (IC50) is 28.2 µM.

Take `CC1OC2OC(=O)C3(C)CC4C5(CO5)C5=CC(=O)OC(C)(C)C5=CC(=O)C4(C)C(C1=O)C23` (stereo not drawn) [NCGC00380663-01]: the “Curve Class” value under setting [2] is listed as -2.2. Moreover, under setting [3], the “Efficacy (%)” value is given as -57% and the IC50 amounted to 31.6 µM.

On to `O=C(/C=C/c1ccccc1)OC[C@H]1O[C@@H](OC(=O)c2cc(O)c(O)c(O)c2)[C@H](O)[C@@H](O)[C@@H]1O` [NCGC00380690-01], for which, under setting [1], the “Efficacy (%)” value is on record as -20%, the “Curve Class” value is -1.4 and the IC50 worked out at 8.9 µM.

`Cc1c(O)cc2c(c1O)COC1(O)CCCOC21` (stereo not drawn) [NCGC00380856-01]: under setting [1], the “Efficacy (%)” value is -23%, the “Curve Class” value is -2.4 and the IC50 was found to be 50.1 µM.

Consider `CCC(C)(OC(C)=O)C(=O)O[C@H]1[C@H](OC(C)=O)C[C@@H]2[C@@](C)([C@@H]3C[C@H]4C=CO[C@H]4O3)[C@H](C)C[C@H](OC(C)=O)[C@@]2(COC(C)=O)[C@@]12CO2` (stereo partly drawn) [NCGC00380906-01], for which, under setting [1], the “Efficacy (%)” value is -20%, the “Curve Class” value is given as -2.4 and the IC50 came out at 10 µM.

With `C=C1CC(=O)C2OC2(C)CC2OC(=O)C(=C)C2C(O)C1OC(=O)/C(C)=C\C` (stereo not drawn) [NCGC00381057-01], under setting [1], the “Efficacy (%)” value was -21%, the “Curve Class” value was -1.4 and the half-inhibitory concentration (IC50) was determined as 14.1 µM.

Regarding `C=C(C)C(=O)OC1CC2(C)OC(=CC2=O)C(=C)CC2OC(=O)C(=C)C12` (stereo not drawn) [NCGC00381113-01], under setting [1], the “Efficacy (%)” value is reported as -22%, the “Curve Class” value was -1.4 and the 50% inhibitory concentration (IC50) is 8.9 µM.

On to `C=C1C(=O)O[C@@H]2C(OC(=O)/C(C)=C\C)/C(C)=C\C(=O)/C=C(\C)C[C@H](O)[C@@H]12` (stereo partly drawn) [NCGC00381208-01], for which, under setting [1], the “Efficacy (%)” value is listed as -28%, the “Curve Class” value is reported as -1.4 and the IC50 came out at 1.6 µM.

`CCC(C)CC(=O)OC1C(=O)C(CO)=CC(O)C1C(C)C` (stereo not drawn) [NCGC00381331-01]: under setting [1], the “Efficacy (%)” value was -22%, the “Curve Class” value was -2.4 and the IC50 was 56.2 µM.

In the case of `COC(=O)CC1OC(C)C2=C(O)c3c(O)cccc3C(=O)C23OC13` (stereo not drawn) [NCGC00381362-01], under setting [1], the “Efficacy (%)” value was -22%, the “Curve Class” value is -2.4 and the IC50 turned out to be 25.1 µM.

Regarding `C=C1CC2OC(=O)C(=C)C2C(OC(=O)/C(C)=C\C)CC2(C)OC1=CC2=O` (stereo not drawn) [NCGC00384607-01], under setting [1], the “Efficacy (%)” value was -25%, the “Curve Class” value is -1.4 and the 50% inhibitory concentration (IC50) is 11.2 µM.

On to `C=C1CCC2C(C)(COC(C)=O)CCCC2(C)C1CCC(C)CC(=O)O` (stereo not drawn) [NCGC00384884-01], for which, under setting [1], the “Efficacy (%)” value is reported as -20%, the “Curve Class” value is given as -1.4 and the IC50 came out at 17.8 µM.

On to `COc1ccc(C(=O)O[C@H]2C=COC=C3C=C4C(=O)N(C)C(=S)C(=O)N4[C@@H]32)cc1Oc1cc(C=O)ccc1O` [NCGC00384899-01], for which, under setting [3], the “Efficacy (%)” value is -66%, the “Curve Class” value was -2.2 and the IC50 is 22.4 µM.

For `CC1CC2(O)OC(=O)C3=C2C(CCC3)[C@@]12C[C@@H](c1ccoc1)OC2=O` (stereo partly drawn) [NCGC00385045-01], under setting [1], the “Efficacy (%)” value was -23%, the “Curve Class” value was -2.4 and the IC50 was 31.6 µM.

On to `COc1cc(/C=C/c2ccccc2)c(C(=O)O)c(O)c1CC=C(C)C` [NCGC00385333-01], for which, under setting [1], the “Efficacy (%)” value is listed as -18%, the “Curve Class” value is reported as -2.4 and the 50% inhibitory concentration (IC50) was found to be 31.6 µM.

Take `CC(NC(=O)CC(=O)O)c1nc2ccccc2c(=O)[nH]1` (stereo not drawn) [NCGC00385407-01]: under setting [1], the “Efficacy (%)” value is listed as -145%, the “Curve Class” value was -2.1 and the IC50 was 28.2 µM.

Regarding `COc1c(C)c(OCC(O)C(C)(C)O)cc2c1CNC2=O` (stereo not drawn) [NCGC00385487-01], under setting [1], the “Efficacy (%)” value is -28%, the “Curve Class” value is -2.4 and the IC50 turned out to be 56.2 µM.

As to `O=C(O)c1cc(O)c2cccc(O)c2c1O[C@@H]1O[C@H](CO)[C@@H](O)[C@H](O)[C@H]1O` [NCGC00385595-01], under setting [1], the “Efficacy (%)” value is listed as -31%, the “Curve Class” value is -2.4 and the 50% inhibitory concentration (IC50) was found to be 39.8 µM.

`C=C1C(=O)O[C@@H]2C3=C(C)CCC[C@]3(C)CC[C@@]12O` [NCGC00385722-01]: under setting [1], the “Efficacy (%)” value is recorded as -30%, the “Curve Class” value is on record as -2.4 and the IC50 was 50.1 µM.

As for `O=C(O)CC1(O)C(=O)Nc2ccccc21` (stereo not drawn) [NCGC00385842-01], under setting [1], the “Efficacy (%)” value is reported as -28%, the “Curve Class” value is -2.4 and the IC50 came to 56.2 µM.

In the case of `C=C1C(=O)OC2/C=C(\C)CC/C=C(\C)CC(OC(C)=O)C12` (stereo not drawn) [NCGC00385946-01], under setting [1], the “Efficacy (%)” value is -21%, the “Curve Class” value is recorded as -1.4 and the IC50 was found to be 11.2 µM.

Take `C/C=C/C=C/c1cc2c(C=O)c(O)c(CC=C(C)C)cc2o1` [NCGC00386103-01]: under setting [1], the “Efficacy (%)” value was -28%, the “Curve Class” value is recorded as -2.4 and the half-inhibitory concentration (IC50) came out at 63.1 µM.

As to `O=C(NCc1ccc(Oc2ccccc2)cc1)c1nc(-c2cc(Br)c(O)c(Br)c2)no1` [NCGC00386303-01], under setting [1], the “Efficacy (%)” value was -24%, the “Curve Class” value was -1.4 and the IC50 is 17.8 µM.

On to `C=CC(=O)Nc1cccc(Nc2nc(Nc3ccc(OCCOC)cc3)ncc2F)c1` [NCGC00386306-06], for which, under setting [1], the “Efficacy (%)” value is reported as -22%, the “Curve Class” value is -1.4 and the IC50 came to 10 µM.

With `Cc1ccccc1NC(=O)Nc1ccc(CN2C(=O)N([C@@H](CC(C)C)C(=O)N[C@@H](CC(=O)O)c3ccccc3)C(=O)C2(C)C)cc1` [NCGC00386592-01], under setting [1], the “Efficacy (%)” value is given as -28%, the “Curve Class” value is on record as -2.4 and the IC50 is 56.2 µM.

`Cc1cc2occ(CN(C)CCN(C)Cc3cn(-c4cccc(C(F)(F)F)c4)c4ccccc34)c(=O)c2cc1C.Cl` [NCGC00386701-02]: under setting [1], the “Efficacy (%)” value is -31%, the “Curve Class” value was -2.4 and the half-inhibitory concentration (IC50) stood at 79.4 µM.

Consider `CC/C(=C(\c1ccc(O)cc1)c1ccc(OCCNC)cc1)c1ccccc1` [NCGC00386714-01], for which, under setting [1], the “Efficacy (%)” value is given as -33%, the “Curve Class” value is -2.4 and the IC50 came out at 79.4 µM.

Take `CCOc1ccc(-c2cc(NC(=O)c3c(F)cccc3F)c(C(=O)O)s2)cc1` [NCGC00386875-01]: under setting [1], the “Efficacy (%)” value is on record as -21%, the “Curve Class” value is on record as -1.4 and the IC50 was 14.1 µM.

On to `CCc1c(-c2ccccc2)c(-c2ccccc2)nn1-c1ccccc1-c1cccc(OCC(=O)O)c1` [NCGC00387254-02], for which the “Curve Class” value under setting [2] is reported as -2.4. In addition, under setting [3], the “Efficacy (%)” value is -30% and the concentration for half-maximal inhibition (IC50) came to 56.2 µM.

On to `O=C1Nc2ccc3ncsc3c2/C1=C/c1c[nH]cn1` [NCGC00387501-01], for which the “Curve Class” value under setting [2] is -1.4. Also, under setting [3], the “Efficacy (%)” value is reported as -27% and the IC50 is 7.1 µM.

Regarding `N#C/C(=C1\Nc2ccccc2S1)c1ccnc(NCCc2cccnc2)n1` [NCGC00387772-02], under setting [1], the “Efficacy (%)” value is given as -26%, the “Curve Class” value is given as -1.4 and the IC50 came out at 5.6 µM.

As to `N=C(N)c1ccc2c(c1)N/C(=C1/C=C(CC(=O)NC(CC(=O)O)C(=O)O)C=C(c3cc(S(N)(=O)=O)ccc3O)C1=O)N2` (stereo not drawn) [NCGC00387860-01], under setting [1], the “Efficacy (%)” value is reported as -31%, the “Curve Class” value is on record as -1.4 and the 50% inhibitory concentration (IC50) was 7.1 µM.

For `O=C(Nc1ncc([N+](=O)[O-])s1)c1ccccc1O` [NCGC00388427-01], under setting [1], the “Efficacy (%)” value was -31%, the “Curve Class” value is -2.4 and the half-inhibitory concentration (IC50) was 44.7 µM.

For the molecule `COc1ccnc(C[S+]([O-])c2nc3cc(OC(F)F)ccc3[nH]2)c1OC` (stereo not drawn) [NCGC00388526-02], under setting [1], the “Efficacy (%)” value is reported as -26%, the “Curve Class” value is recorded as -2.4 and the half-inhibitory concentration (IC50) was found to be 56.2 µM.

For `NS(=O)(=O)c1ccc(Cc2c(-c3ccc(F)c(-c4cccs4)c3)nn(-c3nc(C(=O)O)cs3)c2CC2CC2)cc1F.O=C(O)C(F)(F)F` [NCGC00390071-01], under setting [3], the “Efficacy (%)” value is given as -33% and the half-maximal inhibitory concentration (IC50) came out at 50.1 µM. The “Curve Class” value (qHTS primary screen hits, Table S2, several classes where COUNT > 1) is on record as -2.2.

Consider `COc1cc(Nc2cc(C#N)nc3cc(OCCCN4CCN(C)CC4)c(OC)cc23)c(Cl)cc1Cl` [NCGC00390366-01], for which, under setting [1], the “Efficacy (%)” value is listed as -33%, the “Curve Class” value is listed as -2.4 and the IC50 was 56.2 µM.

Turning to `O=C([O-])CCNc1cc(N2CCc3ccccc3CC2)nc(-c2ccccn2)n1.[Na+]` [NCGC00390406-01], under setting [3], the “Efficacy (%)” value was -28%, the “Curve Class” value is reported as -2.4 and the half-maximal inhibitory concentration (IC50) came to 26.3 µM.

For the molecule `Nc1nccn2c(C3CCC(C(=O)O)CC3)nc(-c3cc4cccc(Cl)c4[nH]3)c12` (stereo not drawn) [NCGC00390408-01], under setting [1], the “Efficacy (%)” value is -33%, the “Curve Class” value is -2.4 and the half-maximal inhibitory concentration (IC50) was determined as 50.1 µM.

As a reminder, the IC50 is the point on the concentration scale where inhibition reaches its midpoint.
